Source: PMC2195568 (The Journal of Experimental Medicine, 1999)

What was measured:
[1] = system: PBMCs from healthy HCV-seronegative blood donors; type: cell-based, human; details: of 12 healthy donors
[2] = system: PBMCs of patients with chronic HCV infection; type: cell-based, human; details: HCV core 178 stimulation; result in words
[3] = system: CTLs in the peripheral blood of patients with chronic HCV infection; details: cited from earlier work
[4] = after stimulation with HCV core 178

For LLALLSCLTV [HCV core 178], the “blood donors with induced HCV core 178–specific CTLs” value ([1]; 10 μg/ml peptide, four replica cultures, 5 wk stimulation) was “nine”, the “individuals recognizing HCV core 178 and CYP2A7 8–17” value [1, 4] was “three” and the “individuals recognizing HCV core 178 only” value [1, 4] was “four”. The “individuals without CTL response” value [1, 4] was “three”, the “percentage of patients having cross-reactive CTLs compared with healthy donors” value [2] was “comparable to that of healthy donors” and the “processing and presentation of the peptide” value [3] was “processed and presented via the endogenous MHC class I pathway”. The “recognition by CTLs in patients with chronic HCV infection” value ([3]; peripheral blood) was “target epitope for CTLs”.
